In brackets after ≈: the same amount, converted by molar mass.
Columns and labels:
Assay type in all cases: functional
Enterobacter cloacae = experiment: Tested for inhibition of visible growth of Enterobacter cloacae
Klebsiella aerogenes = experiment: Tested for inhibition of visible growth of Enterobacter aerogenes
Escherichia coli [1] = experiment: Tested for inhibition of visible growth of Escherichia coli
Mus musculus [2] = species: Mus musculus; experiment: Tested for the antimicrobial activity against Staphylococcus aureus (M202) in mice, perorally; conditions: po
Mus musculus [3] = experiment: Tested for the antimicrobial activity against Staphylococcus aureus (M202) in mice, subcutaneously; conditions: sc
Mus musculus [4] = species: Mus musculus; experiment: Tested for the antimicrobial activity against Streptococcus pneumoniae (D137) in mice, perorally; conditions: po
Mus musculus [5] = experiment: Tested for the antimicrobial activity against Streptococcus pneumoniae (D137) in mice, subcutaneously; conditions: sc
Mus musculus [6] = experiment: Tested for the antimicrobial activity against Streptococcus pneumoniae (D815) in mice, subcutaneously; conditions: sc
Mus musculus [7] = species: Mus musculus; experiment: Tested for the antimicrobial activity against Streptococcus pneumoniae (D815) in mice, perorally; conditions: po
Mus musculus [8] = species: Mus musculus; experiment: Tested for the antimicrobial activity against Streptococcus pyogenes (ST139) in mice, perorally; conditions: po
Mus musculus [9] = experiment: Tested for the antimicrobial activity against Streptococcus pyogenes (ST139) in mice, subcutaneously; conditions: sc
Mus musculus [10] = species: Mus musculus; experiment: Tested for the antimicrobial activity against Streptococcus pyogenes (St141) in mice, perorally; conditions: po
Mus musculus [11] = experiment: Tested for the antimicrobial activity against Streptococcus pyogenes (St141) in mice, subcutaneously; conditions: sc
Mus musculus [12] = experiment: Tested for the antimicrobial activity against Staphylococcus aureus (M240) in mice, subcutaneously; conditions: sc
Pseudomonas aeruginosa = experiment: Tested for inhibition of visible growth of Pseudomonas aeruginosa
Proteus mirabilis = experiment: Tested for inhibition of visible growth of Proteus mirabilis
[13] = Tested for inhibition of visible growth of Salmonella schottmuelleri
Staphylococcus aureus [14] = experiment: Tested for inhibition of visible growth of Staphylococcus aureus, benzyl-penicillin sensitive
Streptococcus pyogenes [15] = experiment: Tested for inhibition of visible growth of Streptococcus pyogenes
Enterococcus faecalis = experiment: Tested for inhibition of visible growth of Streptococcus faecalis
Streptococcus pneumoniae [16] = experiment: Tested for inhibition of visible growth of Streptococcus pneumoniae
Mus musculus [17] = species: Mus musculus; experiment: Tested for the antimicrobial activity against Staphylococcus aureus (M240) in mice, perorally; conditions: po
Klebsiella pneumoniae = experiment: Tested for inhibition of visible growth of Klebsiella pneumoniae
Staphylococcus aureus [18] = experiment: Tested for inhibition of visible growth of Staphylococcus aureus
Escherichia coli [19] = experiment: Tested for the antimicrobial activity against Escherichia coli in mice perorally; conditions: po
Escherichia coli [20] = experiment: Tested for the antimicrobial activity against Escherichia coli in mice
[21] = (§1) Tested for the antimicrobial activity against Salmonella schottmuelleri in mice
[22] = as §1; remark: listed apart in the source
Staphylococcus aureus [23] = experiment: Tested for the antimicrobial activity against Staphylococcus aureus
Streptococcus pneumoniae [24] = experiment: (§2) Tested for the antimicrobial activity against Streptococcus pneumoniae in mice
Streptococcus pneumoniae [25] = experiment: as §2; remark: listed apart in the source
Streptococcus pyogenes [26] = experiment: (§3) Tested for the antimicrobial activity against Streptococcus pyogenes in mice
Streptococcus pyogenes [27] = experiment: as §3; remark: listed apart in the source
Staphylococcus aureus [28] = experiment: Tested for the antimicrobial activity against Staphylococcus aureus, benzyl-penicillin sensitive in mice, perorally; conditions: po

SMILES | MIC (Enterobacter cloacae) [mg/L] | MIC (Klebsiella aerogenes) [mg/L] | MIC (Escherichia coli [1]) [mg/L] | MIC (Proteus mirabilis) [mg/L] | MIC [13] [mg/L] | MIC (Staphylococcus aureus [14]) [mg/L] | MIC (Streptococcus pyogenes [15]) [mg/L] | MIC (Enterococcus faecalis) [mg/L] | MIC (Streptococcus pneumoniae [16]) [mg/L] | MIC (Klebsiella pneumoniae) [mg/L] | MIC (Staphylococcus aureus [18]) [mg/L] | also measured
CC1=C(C(=O)O)N2C(=O)C(NC(=O)C(N)c3cccc4c3OCO4)C2SC1 (centres undefined) | > 200 | > 200 | > 200 | > 200 | 100 (≈ 255 µM) | 3.1 (≈ 7.92 µM) | 0.4 (≈ 1.02 µM) | > 200 | 6.2 (≈ 15.8 µM) | > 200 | 6.2 (≈ 15.8 µM) | 
Cc1nnc(SCC2=C(C(=O)O)N3C(=O)C(NC(=O)[C@@H](N)c4ccc5c(c4)OCO5)C3SC2)s1 (some centres undefined) |  |  | > 100 | > 100 | 50 (≈ 95.9 µM) | 6.2 (≈ 11.9 µM) | 0.8 (≈ 1.53 µM) | > 100 | 0.8 (≈ 1.53 µM) | > 100 |  | 
CC1=C(C(=O)O)N2C(=O)C(NC(=O)[C@@H](N)c3ccc4c(c3)OCO4)C2SC1 (some centres undefined) |  |  | > 100 | > 100 | > 100 | 25 (≈ 63.9 µM) | 12.5 (≈ 31.9 µM) | > 100 | 50 (≈ 128 µM) | > 100 |  | 
CC(=O)OCC1=C(C(=O)O)N2C(=O)C(NC(=O)[C@H](N)c3ccc4c(c3)CCO4)C2SC1 (some centres undefined) | 100 (≈ 223 µM) | 100 (≈ 223 µM) | 25 (≈ 55.9 µM) | 50 (≈ 112 µM) | 3.1 (≈ 6.93 µM) | 0.8 (≈ 1.79 µM) | 0.1 (≈ 0.223 µM) | 50 (≈ 112 µM) | 0.1 (≈ 0.223 µM) | 6.2 (≈ 13.9 µM) | 3.1 (≈ 6.93 µM) | 
CC1(C)SC2C(NC(=O)[C@H](N)c3ccc4c(c3)CCO4)C(=O)N2C1C(=O)O (some centres undefined) | > 100 | > 100 | 25 (≈ 63.9 µM) | 12.5 (≈ 31.9 µM) | 1.6 (≈ 4.09 µM) | 0.05 (≈ 0.128 µM) | ≤ 0.03 | 3.1 (≈ 7.92 µM) | ≤ 0.03 | 6.2 (≈ 15.8 µM) | 100 (≈ 255 µM) | ED50 (Mus musculus [2]): 0.41 mg/kg; ED50 (Mus musculus [3]): 0.89 mg/kg; ED50 (Mus musculus [4]): 0.22 mg/kg; ED50 (Mus musculus [5]): 0.14 mg/kg; ED50 (Mus musculus [6]): 0.078 mg/kg; ED50 (Mus musculus [7]): 0.16 mg/kg; ED50 (Mus musculus [8]): 0.084 mg/kg; ED50 (Mus musculus [9]): 0.053 mg/kg; ED50 (Mus musculus [10]): 0.11 mg/kg; ED50 (Mus musculus [11]): 0.07 mg/kg; ED50 (Mus musculus [12]): 0.063 mg/kg; MIC (Pseudomonas aeruginosa): > 100 mg/L; ED50 (Mus musculus [17]): 0.4 mg/kg

Further lines, with some results ahead:

MIC (Enterobacter cloacae) [mg/L] | MIC (Klebsiella aerogenes) [mg/L] | MIC (Escherichia coli [1]) [mg/L] | MIC (Proteus mirabilis) [mg/L] | MIC [13] [mg/L] | MIC (Staphylococcus aureus [14]) [mg/L] | MIC (Streptococcus pyogenes [15]) [mg/L] | MIC (Enterococcus faecalis) [mg/L] | MIC (Streptococcus pneumoniae [16]) [mg/L] | MIC (Klebsiella pneumoniae) [mg/L] | MIC (Staphylococcus aureus [18]) [mg/L] | SMILES | also measured
> 100 | > 100 | 25 (≈ 63.5 µM) | 25 (≈ 63.5 µM) | 1.6 (≈ 4.07 µM) | 0.1 (≈ 0.254 µM) | ≤ 0.03 | 3.1 (≈ 7.88 µM) | ≤ 0.03 | 6.2 (≈ 15.8 µM) | 100 (≈ 254 µM) | CC1(C)SC2C(NC(=O)C(N)c3ccc4c(c3)OCO4)C(=O)N2C1C(=O)O (centres undefined) | ED50 (Mus musculus [2]): 0.25 mg/kg; ED50 (Mus musculus [3]): 0.53 mg/kg; ED50 (Mus musculus [4]): 0.35 mg/kg; ED50 (Mus musculus [5]): 0.16 mg/kg; ED50 (Mus musculus [6]): 0.078 mg/kg; ED50 (Mus musculus [7]): 0.25 mg/kg; ED50 (Mus musculus [8]): 0.29 mg/kg; ED50 (Mus musculus [9]): 0.06 mg/kg; ED50 (Mus musculus [10]): 0.22 mg/kg; ED50 (Mus musculus [11]): 0.13 mg/kg; ED50 (Mus musculus [12]): < 0.063 mg/kg; MIC (Pseudomonas aeruginosa): > 100 mg/L; ED50 (Mus musculus [17]): 0.32 mg/kg
 |  | > 50 | > 50 | 50 (≈ 102 µM) | 6.2 (≈ 12.6 µM) | 1.6 (≈ 3.26 µM) | > 100 |  | > 50 |  | N[C@H](C(=O)NC1C(=O)N2C(C(=O)O)=C(CSc3c[nH]nn3)CSC12)c1ccc2c(c1)OCO2 (some centres undefined) | 
> 100 | 25 (≈ 48.1 µM) | 12.5 (≈ 24.1 µM) | > 100 | 6.2 (≈ 11.9 µM) | 0.8 (≈ 1.54 µM) | 0.05 (≈ 0.0962 µM) | 100 (≈ 192 µM) | ≤ 0.03 | 6.2 (≈ 11.9 µM) | 3.1 (≈ 5.97 µM) | Cc1nnc(SCC2=C(C(=O)O)N3C(=O)C(NC(=O)[C@H](N)c4ccc5c(c4)CCO5)C3SC2)s1 (some centres undefined) | ED50 (Escherichia coli [19]): 20 mg/kg; ED50 (Escherichia coli [20]): 9.3 mg/kg; ED50 [21]: 31 mg/kg; ED50 [22]: 23 mg/kg; ED50 (Staphylococcus aureus [23]): 0.88 mg/kg; ED50 (Streptococcus pneumoniae [24]): 1.6 mg/kg; ED50 (Streptococcus pneumoniae [25]): 0.89 mg/kg; ED50 (Streptococcus pyogenes [26]): 0.78 mg/kg; ED50 (Streptococcus pyogenes [27]): 0.44 mg/kg; ED50 (Staphylococcus aureus [28]): 1.8 mg/kg

Reference: ChEMBL document CHEMBL1121424, “Orally active cephalosporins and penicillins” (J Med Chem, 1980)
